Results taken from ChEMBL document CHEMBL1154247, “Biscarpamontamines A and B, an aspidosperma-iboga bisindole alkaloid and an aspidosperma-aspidosperma bisindole alkaloid, from Tabernaemontana sphaerocarpa” (J Nat Prod, 2009).

Experiments:
Format in all cases: functional, cell-based
HL-60 = test: Cytotoxicity against human HL60 cells after 48 hrs by MTT assay; conditions: HL-60, 48 h
RPMI-8226 = test: Cytotoxicity against human RPMI8226 cells after 48 hrs by MTT assay; conditions: RPMI-8226, 48 h
NCI-H226 = test: Cytotoxicity against human NCI-H226 cells after 48 hrs by MTT assay; conditions: NCI-H226, 48 h
MCF7 = test: Cytotoxicity against human MCF7 cells after 48 hrs by MTT assay; conditions: MCF7, 48 h
HCT-116 = test: Cytotoxicity against human HCT116 cells after 48 hrs by MTT assay; conditions: HCT-116, 48 h

CC[C@]1(O)C[C@H]2CN(CCc3c([nH]c4ccccc34)[C@@](C(=O)OC)(c3cc4c(cc3OC)N(C=O)[C@H]3[C@@](O)(C(=O)OC)[C@H](OC(C)=O)[C@]5(CC)C=CCN6CC[C@]43[C@@H]65)C2)C1 [VINCRISTINE]
IC50 (HL-60): 0.00087 µM

CC[C@H]1C[C@H]2C[C@@]3(C(=O)OC)c4c(c5cc(OC)ccc5n4CC4=C[C@@]5(CCO)CC(C(=O)OC)=C6Nc7ccccc7[C@@]67CCN(C4)[C@@H]57)CCN([C@@H]2O)[C@@H]13 [BISCARPAMONTAMINE A]
IC50 (RPMI-8226): 27.9 µM
IC50 (HL-60): 12.2 µM
IC50 (NCI-H226): 16.9 µM
IC50 (MCF7): 25.3 µM
IC50 (HCT-116): 14 µM

CC[C@]1(O)C[C@@H]2CN(CCc3c([nH]c4ccccc34)[C@@](C(=O)OC)(c3cc4c(cc3OC)N(C)[C@H]3[C@@](O)(C(=O)OC)[C@H](OC(C)=O)[C@]5(CC)C=CCN6CC[C@]43[C@@H]65)C2)C1 [VINBLASTINE]
IC50 (HL-60): 0.0016 µM
